Results on 21 compounds are retold here after patent publication US20240254118A1, “PRMT5 INHIBITORS AND USES THEREOF” (Gilead Sciences, Inc., priority 2022, published 2024).

Test [1] has as its system SDMA signal (PRMT5 inhibition) in HCT116 MTAP-deleted cells. Description: Symmetric di-methyl arginine image-based high content screen assay (SDMA assay), HCT116 MTAP-deleted. The conditions noted are these: SDMA assay; for EC50: Homo sapiens, HCT-116, 72 h, 3 days of treatment, cell line not given, taken as HCT116 MTAP-deleted, read-out: EC50 (SDMA assay); for EC50 selectivity (SDMA assay): taken as HCT116 WT versus MTAP-deleted. It is filed as cell-based. In a few lines: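 Read-out: per-cell mean SDMA immunofluorescence (Alexa Fluor 488 secondary), cells segmented by DAPI on a high-content imager. Compound exposure in HCT116 MTAP-deleted cells lasted until fixation on Day 3; overnight 4° C primary anti-SDMA antibody staining.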

Test [2] deals with HCT116 MTAP-deleted cells. Kind of test: Cell viability assay (CellTiter-Glo, 7 days), HCT116 MTAP-deleted. The following applies: Homo sapiens, HCT-116, 168 h. On the technique in general: In ATP-based viability assays light output follows the ATP content of the culture.
Description: Control compounds were analyzed in parallel each time for quality control.
In Brief, on Day −1, a serial dilution of stock compounds in DMSO was performed using BioMek liquid handlers and dispensed using Echo acoustic dispenser into 384 well plates. Both tool compounds and sample compounds were spotted in the same plate for a dose response of PRMT5 inhibitors. Compound plates were stored as frozen until the cells were ready for seeding.
On Day 0, 100 HCT WT or HCT116 MTAP-deleted cells were seeded in compound-containing 384 well plates (50 μl per well) in RPMI 1640 media supplemented with 10% heat inactivated fetal bovine serum, Glutamax and penicillin streptomycin using EL460 liquid dispenser 5 μl cassette (BioTek, part no. 7170011). After equilibrating the plate in room temperature, the cells were incubated for 7 days inside the sealed incubator set at 37 °C with 90% humidity and 5% CO2.
On Day 7, the viability of cells was measured using a CTG assay kit (CellTitre-Glo; Promega cat no. G7573). Shortly, 40 μl per well of luminescent cell viability assay reagent were dispensed using EL460 liquid dispenser 5 μl cassette. CTG luminescence signal was measured using an EnVision plate reader (PerkinElmer) in accordance with manufacturer's instruction. The CC50 values for each compound after 7 days of treatment were calculated using 4 parameter non-linear logistical curve fit.

With `CN(C(=O)c1cocn1)N(Cc1ccc(C(F)(F)F)cc1F)C(=O)c1ccc2nc(N)c3cnn(C)c3c2c1` [Example 166, N′-(4-amino-1-methyl-1H-pyrazolo[4,3-c]quinoline-8-carbonyl)-N′-(2-fluoro-4-(trifluoromethyl)benzyl)-N-methyloxazole-4-carbohydrazide], in test [1], the EC50 is below 1 nM and the “EC50 selectivity (SDMA assay)” value is 21. Moreover, the CC50 in test [2] is below 100 nM.

`CC(=O)N(C)N(Cc1ccc(C(F)(F)F)cn1)C(=O)c1cc2c3c(c(N)nc2cc1F)[C@@H](C)OC3` [Example 167, (3R)—N′-acetyl-4-amino-7-fluoro-N′,3-dimethyl-N-[[5-(trifluoromethyl)-2-pyridyl]methyl]-1,3-dihydrofuro[3,4-c]quinoline-8-carbohydrazide]: in test [1], the concentration for a half-maximal effect (EC50) is below 1 nM and the “EC50 selectivity (SDMA assay)” value came to 10. The compound also displayed a cytotoxic concentration (CC50) in test [2] below 100 nM.

Consider `CC(=O)N(C)N(Cc1ccc(C(F)(F)F)cn1)C(=O)c1ccc2nc(N)c3c(c2c1)COC3` [Example 168, N′-acetyl-4-amino-N′-methyl-N-[[5-(trifluoromethyl)-2-pyridyl]methyl]-1,3-dihydrofuro[3,4-c]quinoline-8-carbohydrazide], for which, in test [1], the EC50 was below 1 nM and the “EC50 selectivity (SDMA assay)” value turned out to be 97. In test [2], this compound displayed a CC50 below 100 nM.

`Cn1ncc2c(N)nc3ccc(C(=O)N(Cc4nc5ccccc5s4)N4CCC(F)(F)C4=O)cc3c21` [Example 169, 4-amino-N-(1,3-benzothiazol-2-ylmethyl)-N-(3,3-difluoro-2-oxo-pyrrolidin-1-yl)-1-methyl-pyrazolo[4,3-c]quinoline-8-carboxamide]: in test [1], the EC50 was in the range of 1 to 5 nM and the “EC50 selectivity (SDMA assay)” value was found to be 14. This compound also displayed a CC50 in test [2] below 100 nM.

`Cn1ncc2c(N)nc3ccc(C(=O)N(Cc4ccc(C(F)(F)F)cn4)N4CC5(CC5)CC4=O)cc3c21` [Example 170, 4-amino-1-methyl-N-(6-oxo-5-azaspiro[2.4]heptan-5-yl)-N-((5-(trifluoromethyl)pyridin-2-yl)methyl)-1H-pyrazolo[4,3-c]quinoline-8-carboxamide]: in test [1], the EC50 was below 1 nM and the “EC50 selectivity (SDMA assay)” value was determined as 146. The compound also came in with a CC50 in test [2] below 100 nM.

With `Cn1ncc2c(N)nc3ccc(C(=O)N(Cc4ccc(C(F)(F)F)cn4)N4CCC(F)(F)C4=O)cc3c21` [Example 171, 4-amino-N-(3,3-difluoro-2-oxo-pyrrolidin-1-yl)-1-methyl-N-[[5-(trifluoromethyl)-2-pyridyl]methyl]pyrazolo[4,3-c]quinoline-8-carboxamide], in test [1], the concentration for a half-maximal effect (EC50) was below 1 nM and the “EC50 selectivity (SDMA assay)” value stood at 571. In test [2], the half-maximal cytotoxic concentration (CC50) was below 100 nM.

`CN(CC1CCC1)N(Cc1ccc(C(F)(F)F)cn1)C(=O)c1ccc2nc(N)c3cnn(C)c3c2c1` [Example 172, 4-amino-N′-(cyclobutylmethyl)-N′,1-dimethyl-N-[[5-(trifluoromethyl)-2-pyridyl]methyl]pyrazolo[4,3-c]quinoline-8-carbohydrazide]: in test [1], the EC50 fell in the range of 1 to 5 nM and the “EC50 selectivity (SDMA assay)” value was 153. This compound registered a cytotoxic concentration (CC50) in test [2] below 100 nM.

Consider `CN(CC1CC1)N(Cc1ccc(C(F)(F)F)cn1)C(=O)c1ccc2nc(N)c3cnn(C)c3c2c1` [Example 173, 4-amino-N′-(cyclopropylmethyl)-N′,1-dimethyl-N-[[5-(trifluoromethyl)-2-pyridyl]methyl]pyrazolo[4,3-c]quinoline-8-carbohydrazide], for which, in test [1], the concentration giving a half-maximal response (EC50) was below 1 nM and the “EC50 selectivity (SDMA assay)” value is on record as 117. Further, the half-maximal cytotoxic concentration (CC50) in test [2] is below 100 nM.

With `CN(CC1CC1)N(Cc1ccc(C(F)(F)F)cn1)C(=O)c1cc2c(cc1F)nc(N)c1cnn(C)c12` [Example 174, 4-amino-N′-(cyclopropylmethyl)-7-fluoro-N′,1-dimethyl-N-[[5-(trifluoromethyl)-2-pyridyl]methyl]pyrazolo[4,3-c]quinoline-8-carbohydrazide], in test [1], the concentration for a half-maximal effect (EC50) was below 1 nM and the “EC50 selectivity (SDMA assay)” value is given as 24. The compound further showed a half-maximal cytotoxic concentration (CC50) in test [2] below 100 nM.

As to `CN(C(=O)c1ccnn1C)N(Cc1ccc(C(F)(F)F)cn1)C(=O)c1ccc2nc(N)c3cnn(C)c3c2c1` [Example 175, 4-amino-N′,1-dimethyl-N′-(1-methyl-1H-pyrazole-5-carbonyl)-N-((5-(trifluoromethyl)pyridin-2-yl)methyl)-1H-pyrazolo[4,3-c]quinoline-8-carbohydrazide], in test [1], the EC50 was 1 to 5 nM and the “EC50 selectivity (SDMA assay)” value stood at 19. In addition, the CC50 in test [2] was below 100 nM.

As to `CC(=O)N(C)N(Cc1ccc(C#CC(C)(C)S(C)(=O)=O)cc1F)C(=O)c1ccc2nc(N)c3cnn(C)c3c2c1` [Example 176, N′-acetyl-4-amino-N-(2-fluoro-4-(3-methyl-3-(methylsulfonyl)but-1-yn-1-yl)benzyl)-N′,1-dimethyl-1H-pyrazolo[4,3-c]quinoline-8-carbohydrazide], in test [1], the EC50 was in the range of 1 to 5 nM and the “EC50 selectivity (SDMA assay)” value is on record as 35. In test [2], this compound displayed a 50% cytotoxic concentration (CC50) of 100 to 1000 nM.

Consider `CC(=O)N(C)N(Cc1ccc(C#CC2(C(F)F)CC2)cc1F)C(=O)c1ccc2nc(N)c3cnn(C)c3c2c1` [Example 177, N′-acetyl-4-amino-N-(4-((1-(difluoromethyl)cyclopropyl)ethynyl)-2-fluorobenzyl)-N′,1-dimethyl-1H-pyrazolo[4,3-c]quinoline-8-carbohydrazide], for which, in test [1], the concentration for a half-maximal effect (EC50) fell in the range of 1 to 5 nM and the “EC50 selectivity (SDMA assay)” value was found to be 36. For the same compound, the CC50 in test [2] was below 100 nM.

As to `Cn1ncc2c(N)nc3ccc(C(=O)N(Cc4ccc(C(F)(F)F)cn4)N4CC(C(F)(F)F)OC4=O)cc3c21` (stereo not drawn) [Example 178, 4-amino-1-methyl-N-(2-oxo-5-(trifluoromethyl)oxazolidin-3-yl)-N-((5-(trifluoromethyl)pyridin-2-yl)methyl)-1H-pyrazolo[4,3-c]quinoline-8-carboxamide], in test [1], the concentration giving a half-maximal response (EC50) was above 5 nM and the “EC50 selectivity (SDMA assay)” value was 138. In test [2], this compound came in with a CC50 of 100 to 1000 nM.

Take `COCCN(C)N(Cc1ccc(C(F)(F)F)cn1)C(=O)c1ccc2nc(N)c3cnn(C)c3c2c1` [Example 179, 4-amino-N′-(2-methoxyethyl)-N′,1-dimethyl-N-((5-(trifluoromethyl)pyridin-2-yl)methyl)-1H-pyrazolo[4,3-c]quinoline-8-carbohydrazide]: in test [1], the EC50 is below 1 nM and the “EC50 selectivity (SDMA assay)” value amounted to 318. In test [2], the 50% cytotoxic concentration (CC50) is below 100 nM.

Consider `COCCN(C)N(Cc1ccc(C(F)(F)F)cn1)C(=O)c1cc2c(cc1F)nc(N)c1cnn(C)c12` [Example 180, 4-amino-7-fluoro-N′-(2-methoxyethyl)-N′,1-dimethyl-N-((5-(trifluoromethyl)pyridin-2-yl)methyl)-1H-pyrazolo[4,3-c]quinoline-8-carbohydrazide], for which, in test [1], the EC50 is below 1 nM and the “EC50 selectivity (SDMA assay)” value turned out to be 50. For the same compound, the CC50 in test [2] was below 100 nM.

For the compound `CC(=O)N(C)N(Cc1ccccc1F)C(=O)c1ccc2nc(N)c3cnn(C)c3c2c1` [Example 181, N′-acetyl-4-amino-N-(2-fluorobenzyl)-N′,1-dimethyl-1H-pyrazolo[4,3-c]quinoline-8-carbohydrazide], in test [1], the EC50 fell in the range of 1 to 5 nM and the “EC50 selectivity (SDMA assay)” value came to 441. Besides, in test [2], the CC50 lay within 100 to 1000 nM.

Turning to `CC(=O)N(C)N(Cc1ccccc1F)C(=O)c1cc2c(cc1F)nc(N)c1cnn(C)c12` [Example 182, N′-acetyl-4-amino-7-fluoro-N-(2-fluorobenzyl)-N′,1-dimethyl-1H-pyrazolo[4,3-c]quinoline-8-carbohydrazide], in test [1], the EC50 is below 1 nM and the “EC50 selectivity (SDMA assay)” value is on record as 209. The compound further yielded a half-maximal cytotoxic concentration (CC50) in test [2] below 100 nM.

In the case of `CC(=O)N(C)N(Cc1ccccc1Cl)C(=O)c1ccc2nc(N)c3cnn(C)c3c2c1` [Example 183, N′-acetyl-4-amino-N-(2-chlorobenzyl)-N′,1-dimethyl-1H-pyrazolo[4,3-c]quinoline-8-carbohydrazide], in test [1], the concentration for a half-maximal effect (EC50) fell in the range of 1 to 5 nM and the “EC50 selectivity (SDMA assay)” value turned out to be 300. The CC50 in test [2] was below 100 nM.

For `CN(C(=O)c1cccnn1)N(Cc1ccc(C(F)(F)F)cn1)C(=O)c1ccc2nc(N)c3cnn(C)c3c2c1` [Example 184, 14-amino-N′,1-dimethyl-N′-(pyridazine-3-carbonyl)-N-((5-(trifluoromethyl)pyridin-2-yl)methyl)-1H-pyrazolo[4,3-c]quinoline-8-carbohydrazide], in test [1], the EC50 was above 5 nM and the “EC50 selectivity (SDMA assay)” value was determined as 195. In addition, in test [2], the CC50 is above 1000 nM.

On to `CN(C(=O)C12CC(CO1)C2)N(Cc1ccc(C(F)(F)F)cn1)C(=O)c1ccc2nc(N)c3cnn(C)c3c2c1` [Example 185, 4-amino-N′,1-dimethyl-N′-(2-oxabicyclo[2.1.1]hexane-1-carbonyl)-N-[[5-(trifluoromethyl)-2-pyridyl]methyl]pyrazolo[4,3-c]quinoline-8-carbohydrazide], for which, in test [1], the concentration giving a half-maximal response (EC50) is below 1 nM and the “EC50 selectivity (SDMA assay)” value came out at 33. For the same compound, the half-maximal cytotoxic concentration (CC50) in test [2] was below 100 nM.

For `CN(C(=O)C12COC(C1)C2)N(Cc1ccc(C(F)(F)F)cn1)C(=O)c1ccc2nc(N)c3cnn(C)c3c2c1` [Example 186, 4-amino-N′,1-dimethyl-N′-(2-oxabicyclo[2.1.1]hexane-4-carbonyl)-N-[[5-(trifluoromethyl)-2-pyridyl]methyl]pyrazolo[4,3-c]quinoline-8-carbohydrazide], in test [1], the EC50 lay in the range of 1 to 5 nM and the “EC50 selectivity (SDMA assay)” value came to 66. This compound registered a CC50 in test [2] of 100 to 1000 nM.

The term EC50 denotes the concentration needed to bring the measured effect to its halfway point. A word on the CC50: it is the concentration that lowers cell viability or growth by half. Read a high CC50 as better tolerance by the cells.
